According to the NIST ThermoML archive (doi:10.1021/je400630f):
± gives the expanded uncertainty stated by the source.

Assay: xn = mol fraction of the nth substance listed
Details: 100 kPa, Liquid; for viscosity: Capillary tube (Ostwald / Ubbelohde) method

CCCCCCCCCO [nonan-1-ol] + CCO
Details | mass density, 283.15 K [kg/m3] | mass density, 293.15 K [kg/m3] | mass density, 298.15 K [kg/m3] | mass density, 303.15 K [kg/m3] | mass density, 313.15 K [kg/m3] | viscosity, 283.15 K [mPa·s] | viscosity, 293.15 K [mPa·s] | viscosity, 298.15 K [mPa·s] | viscosity, 303.15 K [mPa·s] | viscosity, 313.15 K [mPa·s]
x2 = 0 | 835 ± 1.3 | 828.1 ± 1.3 | 824.7 ± 1.3 | 821.3 ± 1.3 | 814.3 ± 1.4 | 17.44 ± 0.36 | 11.63 ± 0.24 | 9.519 ± 0.2 | 7.806 ± 0.16 | 5.668 ± 0.12
x2 = 0.0999 | 834.1 ± 1.2 | 827.2 ± 1.3 | 823.8 ± 1.3 | 820.3 ± 1.3 | 813.3 ± 1.3 | 14.81 ± 0.31 | 10.17 ± 0.21 | 8.427 ± 0.18 | 6.931 ± 0.14 | 5.108 ± 0.11
x2 = 0.2 | 832 ± 1.2 | 825.1 ± 1.3 | 821.6 ± 1.3 | 818.1 ± 1.3 | 811 ± 1.3 | 12.63 ± 0.26 | 8.712 ± 0.18 | 7.371 ± 0.15 | 6.145 ± 0.13 | 4.534 ± 0.095
x2 = 0.3002 | 830 ± 1.2 | 823.2 ± 1.3 | 819.7 ± 1.3 | 816.1 ± 1.3 | 809 ± 1.3 | 10.68 ± 0.22 | 7.431 ± 0.15 | 6.388 ± 0.13 | 5.34 ± 0.11 | 3.966 ± 0.083
x2 = 0.4001 | 827.9 ± 1.2 | 820.9 ± 1.3 | 817.3 ± 1.3 | 813.8 ± 1.3 | 806.5 ± 1.3 | 8.855 ± 0.18 | 6.275 ± 0.13 | 5.421 ± 0.11 | 4.577 ± 0.095 | 3.443 ± 0.072
x2 = 0.4999 | 825.3 ± 1.2 | 818.2 ± 1.3 | 814.5 ± 1.3 | 810.9 ± 1.3 | 803.6 ± 1.3 | 7.184 ± 0.15 | 5.234 ± 0.11 | 4.529 ± 0.094 | 3.845 ± 0.08 | 2.946 ± 0.061
x2 = 0.6001 | 822.9 ± 1.2 | 815.1 ± 1.3 | 811.4 ± 1.3 | 807.7 ± 1.3 | 800.8 ± 1.3 | 5.578 ± 0.12 | 4.243 ± 0.088 | 3.712 ± 0.077 | 3.169 ± 0.066 | 2.485 ± 0.052
x2 = 0.6997 | 818.3 ± 1.2 | 810.8 ± 1.3 | 807 ± 1.3 | 803.3 ± 1.3 | 795.6 ± 1.4 | 4.208 ± 0.087 | 3.319 ± 0.069 | 2.936 ± 0.061 | 2.536 ± 0.053 | 2.042 ± 0.042
x2 = 0.7975 | 815 ± 1.3 | 807.1 ± 1.3 | 803.3 ± 1.3 | 799.4 ± 1.3 | 791.1 ± 1.4 | 3.169 ± 0.066 | 2.478 ± 0.051 | 2.281 ± 0.047 | 1.961 ± 0.041 | 1.624 ± 0.034
x2 = 0.8998 | 809.5 ± 1.3 | 799.4 ± 1.3 | 795.3 ± 1.3 | 791.3 ± 1.4 | 783 ± 1.4 | 2.22 ± 0.046 | 1.696 ± 0.035 | 1.658 ± 0.034 | 1.415 ± 0.029 | 1.214 ± 0.025

CCCCCCCCO [octan-1-ol] + CCO
Details | mass density, 283.15 K [kg/m3] | mass density, 293.15 K [kg/m3] | mass density, 298.15 K [kg/m3] | mass density, 303.15 K [kg/m3] | mass density, 313.15 K [kg/m3] | viscosity, 283.15 K [mPa·s] | viscosity, 293.15 K [mPa·s] | viscosity, 298.15 K [mPa·s] | viscosity, 303.15 K [mPa·s] | viscosity, 313.15 K [mPa·s]
x2 = 0 | 832.1 ± 1.2 | 825.2 ± 1.2 | 821.9 ± 1.2 | 818.4 ± 1.3 | 811.4 ± 1.3 | 13.49 ± 0.28 | 9.016 ± 0.19 | 7.39 ± 0.15 | 6.306 ± 0.13 | 4.587 ± 0.095
x2 = 0.1001 | 831.8 ± 1.2 | 824.1 ± 1.2 | 821.3 ± 1.2 | 817.8 ± 1.3 | 810.7 ± 1.3 | 11.57 ± 0.24 | 7.998 ± 0.17 | 6.619 ± 0.14 | 5.68 ± 0.12 | 4.167 ± 0.087
x2 = 0.2001 | 829.4 ± 1.2 | 822.4 ± 1.2 | 818.9 ± 1.2 | 815.4 ± 1.3 | 808.3 ± 1.3 | 9.981 ± 0.2 | 6.997 ± 0.14 | 5.812 ± 0.12 | 5.045 ± 0.11 | 3.739 ± 0.078
x2 = 0.3003 | 827.3 ± 1.2 | 820.6 ± 1.2 | 817 ± 1.3 | 813.4 ± 1.3 | 806.2 ± 1.3 | 8.404 ± 0.17 | 6.004 ± 0.12 | 5.076 ± 0.11 | 4.422 ± 0.092 | 3.316 ± 0.069
x2 = 0.3999 | 825.4 ± 1.2 | 818.2 ± 1.2 | 814.7 ± 1.3 | 811.5 ± 1.3 | 803.7 ± 1.3 | 6.907 ± 0.14 | 5.04 ± 0.1 | 4.357 ± 0.09 | 3.732 ± 0.077 | 2.903 ± 0.06
x2 = 0.5004 | 822.6 ± 1.2 | 815.3 ± 1.3 | 811.7 ± 1.3 | 808.1 ± 1.3 | 800.7 ± 1.3 | 5.63 ± 0.12 | 4.177 ± 0.086 | 3.665 ± 0.076 | 3.22 ± 0.067 | 2.501 ± 0.052
x2 = 0.6006 | 820.1 ± 1.2 | 812.7 ± 1.3 | 809 ± 1.3 | 805.2 ± 1.3 | 797.7 ± 1.3 | 4.488 ± 0.093 | 3.427 ± 0.071 | 3.047 ± 0.063 | 2.677 ± 0.055 | 2.117 ± 0.044
x2 = 0.7 | 816.8 ± 1.2 | 809.3 ± 1.3 | 805.4 ± 1.3 | 801.7 ± 1.3 | 793.9 ± 1.4 | 3.543 ± 0.073 | 2.711 ± 0.056 | 2.445 ± 0.051 | 2.178 ± 0.045 | 1.771 ± 0.037
x2 = 0.7999 | 811.7 ± 1.3 | 803.9 ± 1.3 | 800 ± 1.3 | 796.1 ± 1.3 | 788.1 ± 1.4 | 2.714 ± 0.056 | 2.146 ± 0.044 | 1.958 ± 0.041 | 1.712 ± 0.036 | 1.4 ± 0.029
x2 = 0.8998 | – | – | – | – | – | 2.003 ± 0.042 | 1.593 ± 0.033 | 1.474 ± 0.031 | 1.328 ± 0.028 | 1.112 ± 0.023
x2 = 0.9001 | 805 ± 1.3 | 796.8 ± 1.3 | 792.7 ± 1.4 | 788.6 ± 1.4 | 780.4 ± 1.4 | – | – | – | – | –

CCCCCO [pentan-1-ol] + CCO
Details | mass density, 283.15 K [kg/m3] | mass density, 293.15 K [kg/m3] | mass density, 298.15 K [kg/m3] | mass density, 303.15 K [kg/m3] | mass density, 313.15 K [kg/m3] | viscosity, 283.15 K [mPa·s] | viscosity, 293.15 K [mPa·s] | viscosity, 298.15 K [mPa·s] | viscosity, 303.15 K [mPa·s] | viscosity, 313.15 K [mPa·s]
x2 = 0 | 822.1 ± 1.3 | 814.7 ± 1.3 | 811.2 ± 1.3 | 807.5 ± 1.3 | 800 ± 1.4 | 5.417 ± 0.11 | 3.974 ± 0.083 | 3.441 ± 0.072 | 2.99 ± 0.062 | 2.263 ± 0.047
x2 = 0.1 | 820.6 ± 1.3 | 813.2 ± 1.3 | 810 ± 1.3 | 805.8 ± 1.3 | 798.3 ± 1.4 | 4.879 ± 0.1 | 3.595 ± 0.075 | 3.154 ± 0.066 | 2.741 ± 0.057 | 2.1 ± 0.044
x2 = 0.2 | 819.4 ± 1.3 | 812 ± 1.3 | 808.3 ± 1.3 | 804.6 ± 1.3 | 797 ± 1.4 | 4.379 ± 0.091 | 3.263 ± 0.068 | 2.874 ± 0.06 | 2.506 ± 0.052 | 1.931 ± 0.04
x2 = 0.2998 | 817.8 ± 1.3 | 810.3 ± 1.3 | 806.6 ± 1.3 | 802.8 ± 1.3 | 795.1 ± 1.4 | 3.892 ± 0.081 | 2.935 ± 0.061 | 2.587 ± 0.054 | 2.27 ± 0.047 | 1.771 ± 0.037
x2 = 0.3999 | 815.4 ± 1.3 | 807.8 ± 1.3 | 804.2 ± 1.3 | 800.2 ± 1.3 | 792.4 ± 1.4 | 3.404 ± 0.071 | 2.619 ± 0.054 | 2.324 ± 0.048 | 2.05 ± 0.043 | 1.61 ± 0.034
x2 = 0.4997 | 813.3 ± 1.3 | 805.6 ± 1.3 | 801.8 ± 1.3 | 797.9 ± 1.3 | 790 ± 1.4 | 2.966 ± 0.062 | 2.328 ± 0.048 | 2.07 ± 0.043 | 1.828 ± 0.038 | 1.452 ± 0.03
x2 = 0.6 | 811 ± 1.3 | 803.2 ± 1.3 | 799.6 ± 1.3 | 795.4 ± 1.4 | 787.4 ± 1.4 | 2.564 ± 0.053 | 2.04 ± 0.042 | 1.833 ± 0.038 | 1.628 ± 0.034 | 1.312 ± 0.027
x2 = 0.7 | 808.4 ± 1.3 | 800.5 ± 1.3 | 796.4 ± 1.3 | 792.5 ± 1.4 | 784.3 ± 1.4 | 2.234 ± 0.046 | 1.796 ± 0.037 | 1.631 ± 0.034 | 1.453 ± 0.03 | 1.179 ± 0.025
x2 = 0.8 | 805.3 ± 1.3 | 797.3 ± 1.3 | 793.7 ± 1.4 | 789.1 ± 1.4 | 780.8 ± 1.4 | 1.938 ± 0.04 | 1.583 ± 0.033 | 1.435 ± 0.03 | 1.285 ± 0.027 | 1.062 ± 0.022
x2 = 0.8999 | 802 ± 1.3 | 793.7 ± 1.3 | 790.4 ± 1.4 | 785.3 ± 1.4 | 776.8 ± 1.4 | 1.693 ± 0.035 | 1.381 ± 0.029 | 1.256 ± 0.026 | 1.141 ± 0.024 | 0.956 ± 0.02
